Measured values reported in PubChem BioAssay (NCI).
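96-well plates; 48 h exposure; 5 concentrations. Endpoints by linear interpolation between flanking doses. Not reached: highest tested concentration assigned. Abbreviation: GI50, concentration required for 50% inhibition of growth. The concentration for full growth arrest is given as TGI.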

Key:
Experiment in all cases: NCI-60 cell line screen, 48 h
NCI-H460 lung = system: NCI-H460 lung
SF-295 CNS = system: SF-295 CNS
HOP-62 NSCLC = system: HOP-62 NSCLC
ACHN renal = system: ACHN renal
M14 melanoma = system: M14 melanoma
HCC-2998 colon = system: HCC-2998 colon
SN12C renal = system: SN12C renal
DU-145 prostate = system: DU-145 prostate
SW-620 colon = system: SW-620 colon
RPMI-8226 leukemia = system: RPMI-8226 leukemia
OVCAR-4 ovarian = system: OVCAR-4 ovarian
SF-539 CNS = system: SF-539 CNS
HS 578T breast = system: HS 578T breast
COLO 205 colon = system: COLO 205 colon
CCRF-CEM leukemia = system: CCRF-CEM leukemia
SK-MEL-2 melanoma = system: SK-MEL-2 melanoma
OVCAR-5 ovarian = system: OVCAR-5 ovarian
NCI-H226 lung = system: NCI-H226 lung
BT-549 breast = system: BT-549 breast
HOP-92 NSCLC = system: HOP-92 NSCLC
OVCAR-8 ovarian = system: OVCAR-8 ovarian
T-47D breast = system: T-47D breast
HCT-116 colon = system: HCT-116 colon
MOLT-4 leukemia = system: MOLT-4 leukemia
HCT-15 colon = system: HCT-15 colon
MCF7 breast = system: MCF7 breast
SNB-75 CNS = system: SNB-75 CNS
HL-60(TB) leukemia = system: HL-60(TB) leukemia
MALME-3M melanoma = system: MALME-3M melanoma
RXF 393 renal = system: RXF 393 renal
UACC-257 melanoma = system: UACC-257 melanoma
SNB-19 CNS = system: SNB-19 CNS
LOX IMVI melanoma = system: LOX IMVI melanoma
UACC-62 melanoma = system: UACC-62 melanoma
CAKI-1 renal = system: CAKI-1 renal
MDA-MB-231 breast = system: MDA-MB-231 breast
MDA-MB-435 = system: MDA-MB-435
SK-MEL-5 melanoma = system: SK-MEL-5 melanoma
EKVX NSCLC = system: EKVX NSCLC
OVCAR-3 ovarian = system: OVCAR-3 ovarian
MDA-MB-468 breast = system: MDA-MB-468 breast
TK-10 renal = system: TK-10 renal
786-0 renal = system: 786-0 renal
K-562 leukemia = system: K-562 leukemia
HT29 colon = system: HT29 colon
NCI-H522 lung = system: NCI-H522 lung
PC-3 prostate = system: PC-3 prostate
SK-MEL-28 melanoma = system: SK-MEL-28 melanoma
NCI/ADR-RES ovarian = system: NCI/ADR-RES ovarian
NCI-H23 lung = system: NCI-H23 lung
U251 CNS = system: U251 CNS
SF-268 CNS = system: SF-268 CNS
A498 renal = system: A498 renal
KM12 colon = system: KM12 colon
UO-31 renal = system: UO-31 renal
A549 NSCLC = system: A549 NSCLC
SK-OV-3 ovarian = system: SK-OV-3 ovarian
IGROV1 ovarian = system: IGROV1 ovarian
SR leukemia = system: SR leukemia

Question: Which results are given for `Nc1ccc(-c2ccc3ncnc(N4CCc5cc(F)c(Cl)cc54)c3c2)cn1`?
Answer: GI50 (NCI-H460 lung): 2.73 µM; TGI (NCI-H460 lung): 15.8 µM; GI50 (SF-295 CNS): 2.39 µM; TGI (SF-295 CNS): 16 µM; GI50 (HOP-62 NSCLC): 1.5 µM; TGI (HOP-62 NSCLC): 27.3 µM; GI50 (ACHN renal): 0.739 µM; TGI (ACHN renal): 12.9 µM; GI50 (M14 melanoma): 3.69 µM; TGI (M14 melanoma): 18 µM; GI50 (HCC-2998 colon): 4.3 µM; TGI (HCC-2998 colon): 66.1 µM; GI50 (SN12C renal): 2.11 µM; TGI (SN12C renal): > 100 µM; GI50 (DU-145 prostate): 1.61 µM; TGI (DU-145 prostate): 15.8 µM; GI50 (SW-620 colon): 5.96 µM; TGI (SW-620 colon): 27.5 µM; GI50 (RPMI-8226 leukemia): 3.51 µM; TGI (RPMI-8226 leukemia): 70.1 µM; GI50 (OVCAR-4 ovarian): 3.11 µM; TGI (OVCAR-4 ovarian): 18.8 µM; GI50 (SF-539 CNS): 2.83 µM; TGI (SF-539 CNS): 13.3 µM; GI50 (HS 578T breast): 1.14 µM; TGI (HS 578T breast): 4.6 µM; GI50 (COLO 205 colon): 5.58 µM; TGI (COLO 205 colon): 21.2 µM; GI50 (CCRF-CEM leukemia): 3.31 µM; TGI (CCRF-CEM leukemia): 26.2 µM; GI50 (SK-MEL-2 melanoma): 5.55 µM; TGI (SK-MEL-2 melanoma): 44.6 µM; GI50 (OVCAR-5 ovarian): 2.32 µM; TGI (OVCAR-5 ovarian): > 100 µM; GI50 (NCI-H226 lung): 1.59 µM; TGI (NCI-H226 lung): 40.8 µM; GI50 (BT-549 breast): 1.35 µM; TGI (BT-549 breast): 8.24 µM; GI50 (HOP-92 NSCLC): 2.37 µM; TGI (HOP-92 NSCLC): 20.7 µM; GI50 (OVCAR-8 ovarian): 4.31 µM; TGI (OVCAR-8 ovarian): > 100 µM; GI50 (T-47D breast): 0.895 µM; TGI (T-47D breast): 10.2 µM; GI50 (HCT-116 colon): 3.91 µM; TGI (HCT-116 colon): 28.3 µM; GI50 (MOLT-4 leukemia): 2.68 µM; TGI (MOLT-4 leukemia): 8.4 µM; GI50 (HCT-15 colon): 3.49 µM; TGI (HCT-15 colon): 30.3 µM; GI50 (MCF7 breast): 1.77 µM; TGI (MCF7 breast): 12.8 µM; GI50 (SNB-75 CNS): 0.545 µM; TGI (SNB-75 CNS): 4.21 µM; GI50 (HL-60(TB) leukemia): 2.61 µM; TGI (HL-60(TB) leukemia): 20.8 µM; GI50 (MALME-3M melanoma): 1.57 µM; TGI (MALME-3M melanoma): 10.1 µM; GI50 (RXF 393 renal): 1.14 µM; TGI (RXF 393 renal): 5.22 µM; GI50 (UACC-257 melanoma): 5.76 µM; TGI (UACC-257 melanoma): 23.1 µM; GI50 (SNB-19 CNS): 2.86 µM; TGI (SNB-19 CNS): 47.8 µM; GI50 (LOX IMVI melanoma): 3.31 µM; TGI (LOX IMVI melanoma): 24.6 µM; GI50 (UACC-62 melanoma): 1.91 µM; TGI (UACC-62 melanoma): 14.6 µM; GI50 (CAKI-1 renal): 1.11 µM; TGI (CAKI-1 renal): 12.7 µM; GI50 (MDA-MB-231 breast): 2.84 µM; TGI (MDA-MB-231 breast): 15.2 µM; GI50 (MDA-MB-435): 3.67 µM; TGI (MDA-MB-435): 16.9 µM; GI50 (SK-MEL-5 melanoma): 3.07 µM; TGI (SK-MEL-5 melanoma): 14.4 µM; GI50 (EKVX NSCLC): 1.26 µM; TGI (EKVX NSCLC): 13.8 µM; GI50 (OVCAR-3 ovarian): 1.35 µM; TGI (OVCAR-3 ovarian): 12.3 µM; GI50 (MDA-MB-468 breast): 0.657 µM; TGI (MDA-MB-468 breast): 2.31 µM; GI50 (TK-10 renal): 0.504 µM; TGI (TK-10 renal): 9.78 µM; GI50 (786-0 renal): 1.82 µM; TGI (786-0 renal): 14.7 µM; GI50 (K-562 leukemia): 6.24 µM; TGI (K-562 leukemia): > 100 µM; GI50 (HT29 colon): 3.26 µM; TGI (HT29 colon): 23 µM; GI50 (NCI-H522 lung): 2.37 µM; TGI (NCI-H522 lung): 19.4 µM; GI50 (PC-3 prostate): 2.3 µM; TGI (PC-3 prostate): 27 µM; GI50 (SK-MEL-28 melanoma): 2.76 µM; TGI (SK-MEL-28 melanoma): 15.3 µM; GI50 (NCI/ADR-RES ovarian): 3.2 µM; TGI (NCI/ADR-RES ovarian): 35.5 µM; GI50 (NCI-H23 lung): 5.26 µM; TGI (NCI-H23 lung): > 100 µM; GI50 (U251 CNS): 3.3 µM; TGI (U251 CNS): 24.6 µM; GI50 (SF-268 CNS): 2.2 µM; TGI (SF-268 CNS): 50.2 µM; GI50 (A498 renal): 0.185 µM; TGI (A498 renal): 2.56 µM; GI50 (KM12 colon): 6.73 µM; TGI (KM12 colon): 75.5 µM; GI50 (UO-31 renal): 0.823 µM; TGI (UO-31 renal): 14.5 µM; GI50 (A549 NSCLC): 1.55 µM; TGI (A549 NSCLC): 15.3 µM; GI50 (SK-OV-3 ovarian): 2.18 µM; TGI (SK-OV-3 ovarian): 7.09 µM; GI50 (IGROV1 ovarian): 0.639 µM; TGI (IGROV1 ovarian): 2.88 µM; GI50 (SR leukemia): 3.24 µM; TGI (SR leukemia): > 100 µM
